We go through one molecule from article PMC7465190, “Inhibition of Tyrosyl-DNA Phosphodiesterase 1 by Lipophilic Pyrimidine Nucleosides” (Molecules, 2020).

SMILES strings stand for the structures. Some results are limits rather than exact numbers.

In one data set the target is Tdp1 (Homo sapiens, UniProt Q9NUW8). In words: Real-time detection of Tdp1 activity (fluorophore-quencher oligonucleotide biosensor). The data set is classed as biochemical. As to conditions: 1.5 nM purified Tdp1, 50 nM biosensor, 26 °C, three independent experiments; read-out: IC50 (inhibition of Tdp-1). The source says:
Previously, we designed a real-time oligonucleotide biosensor based on the capability of Tdp1 to remove fluorophore quenchers from the 3′ end of DNA [27]. The single-stranded substrate was a 16-mer oligonucleotide containing both a 5′-FAM fluorophore donor and a quenching 3′-BHQ moiety. When the quencher is removed by Tdp1, FAM fluorescence flares up and can be detected by a fluorimeter. Fluorescence intensity diminishes in the presence of an inhibitor; curves of the obtained Tdp1 activity versus inhibitor concentration can be used to calculate IC50 values. We also investigated some structurally related compounds obtained by previously developed methods; these compounds feature a modification either in a carbohydrate or heterocyclic moiety (Table 1).
This procedure was reported in our previous work. The approach consists of fluorescence intensity measurement in a reaction of quencher removal from a fluorophore quencher–coupled DNA oligonucleotide catalyzed by Tdp1 in the presence of an inhibitor (the control samples contained 1% of DMSO). The reaction mixtures (200 μL) contained Tdp1 buffer (50 mM Tris-HCl pH 8.0, 50 mM NaCl, and 7 mM β-mercaptoethanol), 50 nM biosensor, an inhibitor being tested, and purified Tdp1 (1.5 nM). The biosensor was a single-stranded oligonucleotide (5′-[FAM] AAC GTC AGGGTC TTC C [BHQ]-3′) containing a fluorophore at the 5′ end (5,6-FAM) and Black Hole Quencher 1 (BHQ) at the 3′ end and was synthesized in the Laboratory of Biomedical Chemistry at the Institute of Chemical Biology and Fundamental Medicine (Novosibirsk, Russia).
The reactions were incubated at a constant temperature of 26 °C on a POLARstar OPTIMA fluorimeter (BMG LABTECH, GmbH, Ortenberg, Germany) to measure fluorescence every 55 s (ex. 485/em. 520 nm) during the linear phase (here, data from minute 0 to minute 8). The values of IC50 were determined using a six-point concentration response curve in three independent experiments and were calculated using MARS Data Analysis 2.0 (BMG LABTECH).

Data set [1] is described as follows: Intrinsic cytotoxicity, EZ4U Cell Proliferation and Cytotoxicity Assay. Type of data set: cell-based, human. As to conditions: human, HeLa cells (cervical cancer), 3 days, EZ4U assay. As for the experimental part:
(§1) First, we assessed the toxicity of the compounds to HeLa cells (cervical cancer cells). Analysis of the intrinsic cytotoxicity of the compounds was examined in the EZ4U Cell Proliferation and Cytotoxicity Assay (Biomedica, Austria). The tested compounds were added to the medium (the volume of added reagents was 1/100 of the total volume of the culture medium, and the amount of DMSO (dimethyl sulfoxide) was 1% of the final volume), and the cell culture was monitored for 3 days. Control cells were grown in the presence of 1% DMSO. Intrinsic cytotoxicity of the compounds was either absent or negligible at concentrations up to 100 μM (>80% live cells) with the exception of compounds 2b, 2c, and 7, in the presence of which, at a concentration of 100 μM, 30–45% of the cells died (Table 1 and Figure 1).
(§2) Intrinsic toxicity of the compounds to human cell line HeLa (cervical cancer) was examined by means of the EZ4U Cell Proliferation and Cytotoxicity Assay (Biomedica, Wien, Austria), according to the manufacturer’s protocols. The cells were grown in Iscove’s modified Dulbecco’s medium (IMDM) with 40 μg/mL gentamicin, 50 IU/mL penicillin, 50 μg/mL streptomycin (MP Biomedicals), and 10% of fetal bovine serum (Biolot) in a 5% CO2 atmosphere. After formation of a 30–50%-confluent monolayer, one of the tested compounds was added to the medium (the volume of the added reagents was 1/100 of the total volume of the culture medium, and the amount of DMSO was 1% of the final volume), and the cell culture was monitored for 3 days. Control cells were grown in the presence of 1% DMSO. To assess the influence of the inhibitors on the cytotoxic effect of topotecan, the latter from the manufacturer ACTAVIS GROUP PTC ehf. (Bucharest, Romania) was used. First of all, 50% cytotoxic concentrations of topotecan and of each inhibitor were determined to attain a defined single-agent effect. Second, three independent tests were performed with each inhibitor in combination with topotecan.

In data set [2] the test system is HeLa cells. The description is as above. The data set is classed as cell-based, human. To be noted: compound at 100 μM, 3 days. The procedure:
as §1, §2

Data set [3] concerns HeLa cells. Nature of the data set: Cytotoxicity in combination with topotecan, EZ4U assay. As to conditions: compound 1, 5, 20, 100 μM with 2 μM topotecan, Figure 2. Type of data set: cell-based. As for the experimental part: To study the influence of the inhibitors on the cytotoxic effect of topotecan, the latter from the manufacturer ACTAVIS GROUP PTC ehf. was used. To select a nontoxic but effective concentration of the nucleoside compounds, we investigated their cytotoxicity in the presence of 2 μM topotecan (concentration causing the death of half the HeLa cells). Three independent cytotoxicity assays were performed with each inhibitor in combination with topotecan. For the cells treated with a nucleoside derivative alone, values in the control wells treated with 1% DMSO were set to 100% viability. For the cells treated with a combination of the drugs, the viability of cells treated only with topotecan was set to 100%.
as §2

Chain of Tdp1 (Q9NUW8 whole entry): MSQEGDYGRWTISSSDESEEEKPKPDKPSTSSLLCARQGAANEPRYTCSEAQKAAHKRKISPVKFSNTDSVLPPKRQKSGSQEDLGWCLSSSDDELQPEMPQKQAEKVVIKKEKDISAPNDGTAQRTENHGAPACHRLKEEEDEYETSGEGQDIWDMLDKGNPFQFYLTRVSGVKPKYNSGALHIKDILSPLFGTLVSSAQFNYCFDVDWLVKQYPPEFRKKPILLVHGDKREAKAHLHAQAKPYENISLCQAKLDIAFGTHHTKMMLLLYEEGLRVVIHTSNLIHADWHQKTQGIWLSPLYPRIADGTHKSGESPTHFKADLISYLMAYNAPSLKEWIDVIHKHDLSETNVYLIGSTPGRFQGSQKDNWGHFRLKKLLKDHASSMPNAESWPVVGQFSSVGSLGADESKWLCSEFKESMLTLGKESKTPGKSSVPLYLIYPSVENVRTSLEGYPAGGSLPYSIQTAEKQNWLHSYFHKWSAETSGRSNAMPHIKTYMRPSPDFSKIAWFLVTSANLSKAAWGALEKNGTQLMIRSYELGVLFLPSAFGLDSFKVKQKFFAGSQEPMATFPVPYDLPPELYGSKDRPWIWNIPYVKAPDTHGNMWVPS

As to `O=C(OC[C@H]1O[C@@H](n2cc(Br)c(=O)[nH]c2=O)[C@H](OC(=O)c2ccccc2)[C@@H]1OC(=O)c1ccccc1)c1ccccc1` [Compound 2c, 2′,3′,5′-Tri-O-benzoyl-5-bromouridine], the IC50 (usually the point on the concentration scale where inhibition reaches its midpoint) on Tdp1 is 1.5 ± 0.9 µM. Further, the CC50 (usually the concentration at which the toxic effect on the cells reaches its halfway point) at 3 days in data set [1] was above 100 µM. The cells died in the data set on HeLa cells [2] is listed as 30–45%. Further, in the data set on HeLa cells [3], the “change of cytotoxicity of the compound in the presence of topotecan (synergy)” value is listed as “Inactive”.
